Assays:
Assay type in all cases: functional
[1] = Growth inhibition of human Hs 578T cells after 48 hrs by sulforhodamine B assay
SNB-19 = assay: Growth inhibition of human SNB19 cells after 48 hrs by sulforhodamine B assay; conditions: SNB-19, 48 h
[2] = Growth inhibition of human MOLT4 cells after 48 hrs by sulforhodamine B assay; conditions: MOLT-4, 48 h
U-251 = assay: Growth inhibition of human U251 cells after 48 hrs by sulforhodamine B assay; conditions: U-251, 48 h
A498 = assay: Growth inhibition of human A498 cells after 48 hrs by sulforhodamine B assay; conditions: A498, 48 h
NCI-H522 = assay: Growth inhibition of human NCI-H522 cells after 48 hrs by sulforhodamine B assay; conditions: NCI-H522, 48 h
[3] = Growth inhibition of human UO31 cells after 48 hrs by sulforhodamine B assay; conditions: UO-31, 48 h
K562 = assay: Growth inhibition of human K562 cells after 48 hrs by sulforhodamine B assay; conditions: K562, 48 h
SK-MEL-28 = assay: Growth inhibition of human SK-MEL-28 cells after 48 hrs by sulforhodamine B assay; conditions: SK-MEL-28, 48 h
ACHN = assay: Growth inhibition of human ACHN cells after 48 hrs by sulforhodamine B assay
[4] = Growth inhibition of human OVCAR8 cells after 48 hrs by sulforhodamine B assay; conditions: OVCAR-8, 48 h
NCI-H226 = assay: Growth inhibition of human NCI-H226 cells after 48 hrs by sulforhodamine B assay; conditions: NCI-H226, 48 h
NCI-H460 = assay: Growth inhibition of human NCI-H460 cells after 48 hrs by sulforhodamine B assay; conditions: NCI-H460, 48 h
SN12C = assay: Growth inhibition of human SN12C cells after 48 hrs by sulforhodamine B assay
HCT-116 = assay: Growth inhibition of human HCT116 cells after 48 hrs by sulforhodamine B assay; conditions: HCT-116, 48 h
[5] = Growth inhibition of human UACC257 cells after 48 hrs by sulforhodamine B assay; conditions: UACC-257, 48 h
[6] = Growth inhibition of human HCC2998 cells after 48 hrs by sulforhodamine B assay; conditions: HCC 2998, 48 h
SK-MEL-5 = assay: Growth inhibition of human SK-MEL-5 cells after 48 hrs by sulforhodamine B assay; conditions: SK-MEL-5, 48 h
SR = assay: Growth inhibition of human SR cells after 48 hrs by sulforhodamine B assay
SF-268 = assay: Growth inhibition of human SF268 cells after 48 hrs by sulforhodamine B assay; conditions: SF-268, 48 h
[7] = read-out: LC50 (the source's name)
[8] = read-out: pLC50 (the source's name) (converted)

Nc1nc(-c2ccccc2Cl)cc(-c2ccc(Cl)cc2Cl)n1
GI50 ([1]; read-out: GI50): 6.04 µM | CC50 [1, 7]: > 100 µM | TGI ([1]; read-out: TGI): 60.7 µM | GI50 ([1]; read-out: pGI50 (converted)): 6.03 µM | CC50 [1, 8]: > 100 µM | TGI ([1]; read-out: pTGI (converted)): 60.3 µM | GI50 (SNB-19; read-out: GI50): 16.1 µM | CC50 (SNB-19; [7]): > 100 µM | TGI (SNB-19; read-out: TGI): > 100 µM | GI50 (SNB-19; read-out: pGI50 (converted)): 16.2 µM | CC50 (SNB-19; [8]): > 100 µM | TGI (SNB-19; read-out: pTGI): > 100 µM | GI50 ([2]; read-out: GI50): 4.82 µM | CC50 [2, 7]: > 100 µM | TGI ([2]; read-out: TGI): > 100 µM | GI50 ([2]; read-out: pGI50 (converted)): 4.79 µM | CC50 [2, 8]: > 100 µM | TGI ([2]; read-out: pTGI): > 100 µM | GI50 (U-251; read-out: GI50): 11.1 µM | CC50 (U-251; [7]): > 100 µM | TGI (U-251; read-out: TGI): > 100 µM | GI50 (U-251; read-out: pGI50 (converted)): 11.2 µM | CC50 (U-251; [8]): > 100 µM | TGI (U-251; read-out: pTGI): > 100 µM | GI50 (A498; read-out: GI50): 3.34 µM | CC50 (A498; [7]): > 100 µM | TGI (A498; read-out: TGI): 22.8 µM | GI50 (A498; read-out: pGI50 (converted)): 3.31 µM | CC50 (A498; [8]): > 100 µM | TGI (A498; read-out: pTGI (converted)): 22.9 µM | GI50 (NCI-H522; read-out: GI50): 3.27 µM | CC50 (NCI-H522; [7]): > 100 µM | TGI (NCI-H522; read-out: TGI): 23.3 µM | GI50 (NCI-H522; read-out: pGI50 (converted)): 3.31 µM | CC50 (NCI-H522; [8]): > 100 µM | TGI (NCI-H522; read-out: pTGI (converted)): 23.4 µM | GI50 ([3]; read-out: GI50): 13.5 µM | CC50 [3, 7]: > 100 µM | TGI ([3]; read-out: TGI): > 100 µM | GI50 ([3]; read-out: pGI50 (converted)): 13.5 µM | CC50 [3, 8]: > 100 µM | TGI ([3]; read-out: pTGI): > 100 µM | GI50 (K562; read-out: GI50): 3.97 µM | CC50 (K562; [7]): > 100 µM | TGI (K562; read-out: TGI): > 100 µM | GI50 (K562; read-out: pGI50 (converted)): 3.98 µM | CC50 (K562; [8]): > 100 µM | TGI (K562; read-out: pTGI): > 100 µM | GI50 (SK-MEL-28; read-out: GI50): 20.9 µM | CC50 (SK-MEL-28; [7]): > 100 µM | TGI (SK-MEL-28; read-out: TGI): > 100 µM | GI50 (SK-MEL-28; read-out: pGI50 (converted)): 20.9 µM | CC50 (SK-MEL-28; [8]): > 100 µM | TGI (SK-MEL-28; read-out: pTGI): > 100 µM | GI50 (ACHN; read-out: GI50): 10.4 µM | CC50 (ACHN; [7]): > 100 µM | TGI (ACHN; read-out: TGI): > 100 µM | GI50 (ACHN; read-out: pGI50 (converted)): 10.5 µM | CC50 (ACHN; [8]): > 100 µM | TGI (ACHN; read-out: pTGI): > 100 µM | GI50 ([4]; read-out: GI50): 6.87 µM | CC50 [4, 7]: > 100 µM | TGI ([4]; read-out: TGI): > 100 µM | GI50 ([4]; read-out: pGI50 (converted)): 6.92 µM | CC50 [4, 8]: > 100 µM | TGI ([4]; read-out: pTGI): > 100 µM | GI50 (NCI-H226; read-out: GI50): 81.1 µM | CC50 (NCI-H226; [7]): > 100 µM | TGI (NCI-H226; read-out: TGI): > 100 µM | GI50 (NCI-H226; read-out: pGI50 (converted)): 18.2 µM | CC50 (NCI-H226; [8]): > 100 µM | TGI (NCI-H226; read-out: pTGI): > 100 µM | GI50 (NCI-H460; read-out: GI50): 3.31 µM | CC50 (NCI-H460; [7]): > 100 µM | TGI (NCI-H460; read-out: TGI): 23.1 µM | GI50 (NCI-H460; read-out: pGI50 (converted)): 3.31 µM | CC50 (NCI-H460; [8]): > 100 µM | TGI (NCI-H460; read-out: pTGI (converted)): 22.9 µM | GI50 (SN12C; read-out: GI50): 13.1 µM | CC50 (SN12C; [7]): > 100 µM | TGI (SN12C; read-out: TGI): > 100 µM | GI50 (SN12C; read-out: pGI50 (converted)): 13.2 µM | CC50 (SN12C; [8]): > 100 µM | TGI (SN12C; read-out: pTGI): > 100 µM | GI50 (HCT-116; read-out: GI50): 4.27 µM | CC50 (HCT-116; [7]): > 100 µM | TGI (HCT-116; read-out: TGI): > 100 µM | GI50 (HCT-116; read-out: pGI50 (converted)): 4.27 µM | CC50 (HCT-116; [8]): > 100 µM | TGI (HCT-116; read-out: pTGI): > 100 µM | GI50 ([5]; read-out: GI50): 11.9 µM | CC50 [5, 7]: > 100 µM | TGI ([5]; read-out: TGI): 55.2 µM | GI50 ([5]; read-out: pGI50 (converted)): 11.7 µM | CC50 [5, 8]: > 100 µM | TGI ([5]; read-out: pTGI (converted)): 55 µM | GI50 ([6]; read-out: GI50): 7.19 µM | CC50 [6, 7]: > 100 µM | TGI ([6]; read-out: TGI): 44 µM | GI50 ([6]; read-out: pGI50 (converted)): 7.24 µM | CC50 [6, 8]: > 100 µM | TGI ([6]; read-out: pTGI): 43.7 µM | GI50 (SK-MEL-5; read-out: GI50): 4.78 µM | CC50 (SK-MEL-5; [7]): 71.1 µM | TGI (SK-MEL-5; read-out: TGI): 20.8 µM | GI50 (SK-MEL-5; read-out: pGI50 (converted)): 4.79 µM | CC50 (SK-MEL-5; [8]): 70.8 µM | TGI (SK-MEL-5; read-out: pTGI (converted)): 20.9 µM | GI50 (SR; read-out: GI50): 4.1 µM | CC50 (SR; [7]): > 100 µM | TGI (SR; read-out: TGI): > 100 µM | GI50 (SR; read-out: pGI50 (converted)): 4.07 µM | CC50 (SR; [8]): > 100 µM | TGI (SR; read-out: pTGI): > 100 µM | GI50 (SF-268; read-out: GI50): 5.01 µM | CC50 (SF-268; [7]): > 100 µM | TGI (SF-268; read-out: TGI): 81.6 µM | GI50 (SF-268; read-out: pGI50 (converted)): 5.01 µM | CC50 (SF-268; [8]): > 100 µM | TGI (SF-268; read-out: pTGI (converted)): 81.3 µM
